In patent US20230066049A1, “PEPTIDES USEFUL IN PRESERVATION AND/OR RESTORATION OF FUNCTIONAL PANCREATIC ISLETS AND IN TREATING DIABETES” (THE NATIONAL INSTITUTE FOR BIOTECHNOLOGY IN THE NEGEV LTD., priority 2020, published 2023):
Read-outs that look alike come from different tables or passages of the source.

Columns and labels:
db/db mice = conditions: Zhang et al., 2019; cited from earlier work
ob/ob mice [1] = assay: Ob/Ob diabetes mouse model: blood glucose, body weight, Langerhans islets; format: in vivo; conditions: 14 mg/kg intravenous three times a week
Experimental: Six week old male (C57BL/6) Ob/Ob (Jackson Laboratory, Bar Harbor, Me.) mice were treated with R-Tf-D-LP4 (14 mg/Kg) from week 6 to week 13 by intravenous administration of the R-Tf-D-LP4 peptide in 100 μl of Hank's balanced salts solution (HBSS) without calcium three times a week. A control group received 100 μl of 0.8% DMSO in HBSS buffer injected intravenously. The final blood DMSO concentration was 0.07% in both control and peptide-treated mice. Blood glucose levels were measured once a week. At the end of the experiment, the mice were sacrificed, and the pancreas was removed and fixed with formaldehyde, embedded in paraffin, sectioned, and subjected to immunefluorescent (IF). The experimental protocol used in the mouse model was approved by the Institutional Animal Care and Use Committee.
(§1) Immunohistochemistry (IHC) and immunofluorescence (IF) staining was performed on 5 μm-thick formalin-fixed and paraffin-embedded pancreatic tissue sections. Sections were deparaffinized (5 minutes in xylene, 3 times), followed by rehydration with a graded ethanol series (50%, 70%, 95%, 100%). Antigen retrieval was performed by 20 min incubation in preheated 0.01 M citrate buffer, pH 6.0 at 95-98° C. Sections were washed with PBS pH 7.4 containing 0.1% Triton-X100 (PBST), incubated in 10% NGS and 1% BSA for 2 h, followed by overnight incubation at 4° C. with primary antibodies (see Table 1). Sections were then washed with PBST. For IHC staining, endogenous peroxidase activity was blocked by incubating the sections in 3% H2O2 for 15 min. Following washing with PBST, sections were incubated for 2 h with the appropriate secondary HRP-conjugated antibodies. Sections were washed with PBST and peroxidase activity was visualized by incubating with DAB. After rinsing in water, the sections were counter-stained with hematoxylin, dehydrated with a graded ethanol series (50-100%), incubated in xylene, and mounted with mounting medium. Finally, images from the sections were collected using an automatic digital slide scanner (Panoramic
(§2) MIDI II, 3DHISTECH) with the same light intensity and exposure time. Non-specific control experiments were carried out using the same protocols but omitting incubation with primary antibodies. For IF staining, sections were incubated for 2 h with the appropriate secondary Alexa Fluor conjugated antibodies. Sections were washed with PBST, counter—stained with DAPI (0.07 μg/ml), washed with PBST, and mounted with mounting media. […]
STZ/HFD-32-fed mice at the end of study before sacrifice. In the case of the ob/ob mice, weekly blood samples were collected from the tail, and blood glucose levels were measured immediately using an Accu-Check Performa blood glucose meter.

Langerhans islets = assay: Glucagon IHC staining of Langerhans islets (islet morphology) in STZ/HFD-32-fed mice; format: in vivo, mouse
Experimental: (§3) Male C57BL/6 mice were purchased from Envigo (Jerusalem, Israel). In order to generate the diabetes-based steatosis-NASH mouse model, 2-day-old mice were subjected to a single, low dose subcutaneous injection of streptozotocin (STZ) (200 μg/mouse) and then were fed with the HFD-32 high fat diet starting at the end of week 4. The mice manifested steatosis at 6 weeks and NASH at 8 weeks. These mice are designated herein interchangeably as “NAFLD/diabetes mice model” and “STZ/HFD-32-fed mice”. Mice affected with steatosis were treated with R-Tf-D-LP4 (14 mg/kg) from week 6 to week 8, and mice affected with NASH from week 8 to week 10. The R-Tf-D-LP4 peptide at 14 mg/kg (in 100 μl of Hank's balanced salts solution (HBSS) without calcium) was administered intravenously three times a week. Control groups were intravenously injected with 100 μl of 0.8% DMSO in HBSS buffer from week 6 to week 8 for steatosis affected mice and from week 8 to week […] for NASH affected mice. The final blood DMSO concentration was 0.07% in control and peptide-treated mice.
(§4) At the end of the experiment, the mice were sacrificed by CO2 inhalation and the livers and pancreases were removed. Livers were photographed and the lipid content was assessed. […]

VDAC1 = VDAC1 IHC/IF staining of Langerhans islets of STZ/HFD-32-fed mice; format: in vivo, mouse
Experimental: Male C57BL/6 mice were purchased from Envigo (Jerusalem, Israel). In order to generate the diabetes-based steatosis-NASH mouse model, 2-day-old mice were subjected to a single, low dose subcutaneous injection of streptozotocin (STZ) (200 μg/mouse) and then were fed with the HFD-32 high fat diet starting at the end of week 4. The mice manifested steatosis at 6 weeks and NASH at 8 weeks. These mice are designated herein interchangeably as “NAFLD/diabetes mice model” and “STZ/HFD-32-fed mice”. Mice affected with steatosis were treated with R-Tf-D-LP4 (14 mg/kg) from week 6 to week 8, and mice affected with NASH from week 8 to week 10. The R-Tf-D-LP4 peptide at 14 mg/kg (in 100 μl of Hank's balanced salts solution (HBSS) without calcium) was administered intravenously three times a week. […]
as §4
The expression of VDAC1 was examined in the pancreas of STZ/HFD-32 diet-fed mice, representing NAFLD affected mice on a diabetic background with and without R-Tf-D-LP4 peptide treatment as compared to the levels in islets from mice fed with chow-diet (FIG. 5). Formaldehyde-fixed, paraffin-embedded pancreas sections were analyzed by IHC staining for VDAC1 using anti-VDAC1 specific antibodies. […]

PDX1 = PDX1 IF co-staining in pancreas of STZ/HFD-32-fed mice; format: in vivo, mouse
Experimental: as §3, §4

3T3-L1 adipocytes = assay: Oil Red O staining of intracellular lipids in adipocytes; format: cell-based, mouse; conditions: 10 μM peptide, 24 h
Experimental: 3T3-L1 mouse embryo fibroblasts were purchased from the American Type Culture Collection (ATCC Manassas, Va.) and maintained in a humidified atmosphere of 5% CO2, 95% air at 37° C. in Dulbecco's modified Eagle's growth medium (DMEM) with high glucose ([…]), supplemented with 10% fetal calf serum, and 1% penicillin-streptomycin. For R-Tf-D-LP4 peptide treatment, […] cells (6×10^5/ml at 70-80% confluence) were incubated with the R-Tf-D-LP4 peptide in 500 μl serum-free medium for 24 h at 37° C. and 5% CO2. The cells were then stained with Oil red O as described below.
3T3-L1 cells were washed with PBS, fixed with formaldehyde for 15 min, and then subjected to Oil Red O staining for 30 min at room temperature followed by staining with Hematoxylin. Microscope images were collected to visualize the red oil droplets in the cells. Finally, the cells were washed with H2O followed by three washes with 60% isopropanol with gentle rocking. The Oil Red O stain was extracted with 100% isopropanol for 5 min and the absorbance at 492 nm was measured and normalized to the same number of cells counted before stain extraction.

STZ/HFD-32-fed mice [2] = assay: NAFLD/diabetes mice model (STZ/HFD-32-fed mice): number and size of Langerhans islets, blood glucose; format: in vivo, mouse; conditions: for Average No. of islets per mouse / Total No. of islets: 14 mg/kg i.v. three times a week
Description: The HFD-32 diet was as described previously (Fujii, M., et al. Med Mol Morphol, 2013. 46(3): p. 141-52; 507.6 kcal/100 g, 56.7% kcal from fat) comprising 5% egg white powder (MM Ingredients, Wimborne, UK), 6.928% lactose (Pharma Grade, Nelson, UK), 15.88% beef fat (contains 80% fat), 5% AIN93G-mineral mixture, 0.002% tertiary butyl hydroquinone and 1.4% AIN93VX-vitamin mix (MP Biomedical, Illkirch, France), 24.5% milk casein (Shaanxi Fuheng Biotechnology, Xi'an, China), 20% safflower oil (high oleic acid content) (Bustan Briut, Galil, Israel), 6.45% sucrose, 0.43% L-cysteine, 5.5% crystalline cellulose (Sigma), 0.36% choline bitartrate and 8.25% maltodextrin (Bulk Powders, Colchester, UK). Control C57BL/6 mice were fed with a standard chow diet (408.4 kcal/100 g, 57% kcal from carbohydrates, 27% kcal from proteins, 16% from fat (V1154-703, S sniff Spezialdaten, Sosset, Germany).
as §3
At the end of the experiment, the mice were sacrificed by CO2 inhalation and the livers and pancreases were removed. Livers were photographed and the lipid content was assessed. For this purpose, part of the liver was frozen in OCT (optimal cutting temperature) compound, embedded, sectioned, and stained with oil red O. The pancreases were fixed with formaldehyde, embedded in paraffin, sectioned, and subjected to immunohistochemical (IHC) or immunefluorescent (IF) staining, as described below.
as §1
as §2, with “antibodies.” for “antibodies. Sections were washed with PBST, counter—stained with DAPI (0.07 μg/ml), washed with PBST, and mounted with mounting media.”

Ki-67 = Ki-67 IF staining (proliferation) in pancreas of STZ/HFD-32-fed mice; format: in vivo, mouse; conditions: steatosis stage; compared to chow diet-fed and STZ/HFD-32-fed mice
Experimental: as §3, §4

Glut-2 = Glut-2 IF staining of pancreatic sections of STZ/HFD-32-fed mice; format: in vivo, mouse; conditions: STZ/HFD-32-fed mice at steatosis
Experimental: as §3, §4

ob/ob mice [3] = conditions: diabetic (ob/ob) mice and NAFLD affected mice; Pittala et al., Cells 2020; cited from earlier work
STZ/HFD-32-fed mice [4] = conditions: 2019, cited from earlier work

## O=C(CC(CO)N1CCN(c2ccc(OC(F)(F)F)cc2)CC1)Nc1ccc(Cl)cc1 (stereo not drawn) [VBIT-4, N-(4-chlorophenyl)-4-hydroxy-3-(4-(4-(trifluoromethoxy)phenyl)piperazin-l-yl) butanamide]
db/db mice
  glucose tolerance: maintained normal glucose tolerance
  hyperglycemia: prevented hyperglycemia
  insulin secretion: stimulated insulin secretion

## D-Lys-D-Trp-D-Thr-D-Trp-D-Lys-D-Asn-D-Ser-D-Asn-D-Gly-D-Ala-D-Thr-D-Trp-D-Ala-D-Leu-D-Asn-D-Val-D-Ala-D-Thr-D-Glu-D-Leu-D-Lys-D-Lys-D-Glu-D-Trp-D-Thr-D-Trp-D-Ser-His-Arg-Pro-Tyr-Ile-Ala-His [R-Tf-D-LP4]
ob/ob mice [1]
  blood glucose levels: reduced the levels of blood glucose
  insulin production: improved insulin production
ob/ob mice [1]; H&E and anti-insulin staining
  number of Langerhans islets: increased the number of islets
ob/ob mice [1]; followed for 7 weeks
  body weight (weekly average weight): no such effect was observed
Langerhans islets; NASH stage
  islet morphology (localization of glucagon-producing cells): completely restored
Langerhans islets; steatosis stage
  islet morphology (localization of glucagon-producing cells): improved to some extent
VDAC1; IHC, 14 mg/kg
  VDAC1 staining level in the islets: this level decreased
VDAC1; steatosis stage
  islet morphology and size (IF co-staining VDAC1 and insulin): displayed a normal morphology and large islets
PDX1; co-staining PDX1 and glucagon, over the level in control chow-fed mice
  PDX1 staining level: highly increased
PDX1; co-staining PDX1 and insulin
  PDX1 staining level: showed a higher level of staining for PDX1
3T3-L1 adipocytes
  decrease in the amount of lipid (extraction of Oil red O stain): 90%
STZ/HFD-32-fed mice [2]; NASH
  number of islets per mouse, Islet size, 1-50 nm: 16
  number of islets per mouse, Islet size, 51-100 nm: 12
  number of islets per mouse, Islet size, 101-150 nm: 4
  number of islets per mouse, Islet size, 151-300 nm: 3
STZ/HFD-32-fed mice [2]; NASH, week 8 to 10
  Average No. of islets per mouse: 35
STZ/HFD-32-fed mice [2]; NASH, week 8 to 10, n = 10
  Total No. of islets: 354 (n = 10)
STZ/HFD-32-fed mice [2]; STZ/HFD-32-fed mice, steatosis or NASH stage
  size and number of Langerhans islets: both the size and the number of Langerhans islets were increased
STZ/HFD-32-fed mice [2]; STZ/HFD-32 mice model
  blood glucose levels: reduced blood glucose levels
  insulin content within the islets: increased insulin content within the islets
STZ/HFD-32-fed mice [2]; Steatosis
  number of islets per mouse, Islet size, 1-50 nm: 16
  number of islets per mouse, Islet size, 51-100 nm: 8
  number of islets per mouse, Islet size, 101-150 nm: 2
  number of islets per mouse, Islet size, 151-300 nm: 1
STZ/HFD-32-fed mice [2]; Steatosis, week 6 to 8
  Average No. of islets per mouse: 27
STZ/HFD-32-fed mice [2]; Steatosis, week 6 to 8, n = 17
  Total No. of islets: 451 (n = 17)
STZ/HFD-32-fed mice [2]; mice affected with NASH
  further increase of the number of islets over chow diet level: 30%
STZ/HFD-32-fed mice [2]; mice with steatosis
  number of the islets compared with chow diet-fed mice: to the level observed in mice fed with chow diet
Ki-67
  increase in number of Ki-67 positive cells in the islet interior: about 8 fold
  increase in number of Ki-67 positive cells outside of the islets: ~3 fold
Glut-2
  Glut-2 expression in islets: re-expressed
ob/ob mice [3]
  blood glucose levels: reduced blood glucose levels
STZ/HFD-32-fed mice [4]; STZ/HFD-32-fed mice, Pittala et al.
  β-oxidation in the liver: accelerated β-oxidation in the liver
STZ/HFD-32-fed mice [4]; mouse model for NAFLD, WO 2017/037711, Pittala et al.
  liver pathology: reverse liver pathology to a normal-like state
